What all share (type): functional
For assay [1], the system named is Tetranychus cinnabarinus. Description: Acaricidal activity against Tetranychus cinnabarinus (carmine spider mite) in kidney bean plants assessed as mortality at 600 mg/l after 48 hr relative to control.
Assay [2] deals with Blumeria graminis f. sp. tritici. Description: Antifungal activity against Blumeria graminis f. sp. tritici infected seven-day-old wheat seedlings assessed as disease control at 1.56 mg/l after 7 days relative to control.
Assay [3] shares this test system. Kind of assay: Antifungal activity against Blumeria graminis f. sp. tritici infected seven-day-old wheat seedlings assessed as disease control at 12.5 mg/l after 7 days relative to control.
Assay [4] has the same test system. Description: Antifungal activity against Blumeria graminis f. sp. tritici infected seven-day-old wheat seedlings assessed as disease control at 400 mg/l after 7 days relative to control.
Assay [5] concerns Pseudoperonospora cubensis. Description: Antifungal activity against Pseudoperonospora cubensis infected cucumber leaves assessed as disease control at 3.12 mg/l after 5 days relative to control.
Assay [6] concerns Pseudoperonospora cubensis. Description: Antifungal activity against Pseudoperonospora cubensis infected cucumber leaves assessed as disease control at 6.25 mg/l after 5 days relative to control.
The subject of assay [7] is Pseudoperonospora cubensis. Kind of assay: Antifungal activity against Pseudoperonospora cubensis infected cucumber leaves assessed as disease control at 25 mg/l after 5 days relative to control.
Assay [8] concerns Pseudoperonospora cubensis. Description: Antifungal activity against Pseudoperonospora cubensis infected cucumber leaves assessed as disease control at 400 mg/l after 5 days relative to control.
For assay [9], the system named is Botrytis cinerea. Kind of assay: Antifungal activity against Botryotinia fuckeliana infected cucumber leaves assessed as disease control at 400 mg/l after 4 days relative to control.
Assay [10] relates to Pyricularia oryzae. Description: Antifungal activity against Magnaporthe oryzae infected 12 day old rice plant assessed as disease control at 400 mg/l after 6 days relative to control.
Assay [11] relates to Tetranychus cinnabarinus. Kind of assay: Acaricidal activity against Tetranychus cinnabarinus (carmine spider mite) in kidney bean plants assessed as mortality at 38 mg/l after 48 hr relative to control.
For assay [12], the system named is Tetranychus cinnabarinus. Kind of assay: Acaricidal activity against Tetranychus cinnabarinus (carmine spider mite) in kidney bean plants assessed as mortality at 150 mg/l after 48 hr relative to control.

Regarding `CO/C=C(/C(=O)OC)c1ccccc1COc1cc(-c2ccccc2OC)nn1C`, the Activity in [1] is given as 0%; in assay [2], 35%; in assay [3] it was 100%; in assay [4], 100%; in assay [5], 0%; in assay [6], 0%. Besides, the Activity worked out at 50% in assay [7], 100% in [8], 50% in assay [9] and 100% in assay [10].
For the compound `CO/C=C(/C(=O)OC)c1ccccc1COc1cc(-c2ccc(OCC(F)(F)F)cc2)nn1C`, the Activity in assay [1] is recorded as 0%; in assay [4], 60%; in assay [5], 0%; in assay [6], 0%; in assay [7] it was 90%; in assay [8] it was 100%. In addition, the Activity in assay [9] and in assay [10] was 0% each time.
With `CO/C=C(/C(=O)OC)c1ccccc1COc1cc(-c2ccc([N+](=O)[O-])cc2)nn1C`, the Activity in [1] is listed as 0%; in assay [2] it was 95%; in assay [3], 100%; in [4], 100%; in assay [5] it was 50%; in assay [6], 70%. For the same compound, the Activity worked out at 100% in assay [7], 100% in [8], 0% in assay [9] and 99% in assay [10].
As for `CO/C=C(/C(=O)OC)c1ccccc1COc1cc(-c2ccc(-c3ccc(Cl)cc3)cc2)nn1C`, the Activity in assay [1] was determined as 0%; in assay [2], 0%; in assay [3], 95%; in assay [4], 100%; in assay [5], 0%; in assay [6], 0%. The Activity came to 100% in assay [7], 100% in [8], 0% in assay [9] and 0% in [10].
For the compound `CO/C=C(/C(=O)OC)c1ccccc1COc1cc(-c2ccc(Oc3ccccc3)cc2)nn1C`, the Activity in [1] was 0%; in assay [4], 0%; in assay [5], 0%; in assay [6], 0%; in assay [7], 100%; in assay [8] it was 100%. In addition, the Activity in [9] and in assay [10] was 0% throughout.
On to `CO/C=C(/C(=O)OC)c1ccccc1COc1c(C)c(-c2ccccc2)nn1C`, for which the Activity was determined as 0% in assay [11]; 0% in [12]; 100% in [1]; 55% in assay [2]; 100% in [3]; 100% in assay [4]. The Activity in assay [5] is on record as 40%; in assay [6] it was 60%; in assay [7] it was 100%; in assay [8] it was 100%; in assay [9] it was 0%; in [10], 0%.
As for `CO/C=C(/C(=O)OC)c1ccccc1Oc1cc(Oc2ccccc2C#N)ncn1` [AZOXYSTROBIN], the Activity in [2] is 60%; in [3], 100%; in [4], 100%; in [5], 100%; in [6], 95%; in [7], 100%. For the same compound, the Activity in [8], in [9] and in assay [10] was 100% in each case.
Regarding `CO/N=C(/C(=O)OC)c1ccccc1COc1ccccc1C` [KRESOXIM-METHYL], the Activity was found to be 100% in [2]; 100% in assay [3]; 100% in assay [4]; 0% in assay [5]; 0% in assay [6]; 35% in [7]. Further, the Activity in assay [9] and in assay [10] was 100% in each case.
`CO/C=C(/C(=O)OC)c1ccccc1COc1c(C)c(-c2ccc(OCC(F)(F)F)cc2)nn1C` [METHYL 2-(2-((1,4-DIMETHYL-3-(4-(2,2,2-TRIFLUOROETHOXY)PHENYL)-1H-PYRAZOL-5-YLOXY)METHYL)PHENYL)-3-METHOXYACRYLATE]: the Activity is reported as 60% in assay [1]; 65% in [2]; 100% in [3]; 100% in [4]; 0% in assay [5]; 0% in assay [6]. Further, the Activity in [7] amounted to 40%; in assay [8], 100%; in assay [9], 100%; in assay [10], 100%.
Regarding `CO/C=C(/C(=O)OC)c1ccccc1COc1cc(-c2ccc(Cl)cc2Cl)nn1C` [METHYL 2-(2-((3-(2,4-DICHLOROPHENYL)-1-METHYL-1H-PYRAZOL-5-YLOXY)METHYL)PHENYL)-3-METHOXYACRYLATE], the Activity amounted to 0% in assay [1]; 0% in [2]; 100% in [3]; 100% in [4]; 20% in assay [5]; 45% in assay [6]. Also, the Activity in [7] is on record as 100%; in [8], 100%; in assay [9], 0%; in assay [10] it was 0%.
Take `CO/C=C(/C(=O)OC)c1ccccc1COc1c(C)c(-c2ccc(Cl)cc2)nn1C` [METHYL 2-(2-((3-(4-CHLOROPHENYL)-1,4-DIMETHYL-1H-PYRAZOL-5-YLOXY)METHYL)PHENYL)-3-METHOXYACRYLATE]: the Activity in assay [1] is listed as 60%; in assay [2] it was 100%; in assay [3], 100%; in assay [4], 100%; in [5], 0%; in assay [6], 0%. The Activity turned out to be 0% in assay [7], 95% in assay [8], 0% in assay [9] and 0% in assay [10].
On to `CO/C=C(/C(=O)OC)c1ccccc1COc1cc(-c2ccc(F)cc2)nn1C` [METHYL 2-(2-((3-(4-FLUOROPHENYL)-1-METHYL-1H-PYRAZOL-5-YLOXY)METHYL)PHENYL)-3-METHOXYACRYLATE], for which the Activity in [1] worked out at 0%; in [4], 30%; in assay [5] it was 75%; in [6], 100%; in [7], 100%; in assay [8], 100%. Further, the figures for the Activity in [9] and in [10] were 100% and 50%, respectively.
For `CO/C=C(/C(=O)OC)c1ccccc1COc1cc(-c2ccc(C(C)(C)C)cc2)nn1C` [METHYL 2-(2-((3-(4-TERT-BUTYLPHENYL)-1-METHYL-1H-PYRAZOL-5-YLOXY)METHYL)PHENYL)-3-METHOXYACRYLATE], the Activity stood at 0% in assay [1]; 70% in [4]; 15% in [7]; 100% in assay [8]; 50% in assay [9]; 100% in assay [10].
Take `CO/C=C(/C(=O)OC)c1ccccc1COc1cc(-c2ccc(SC)cc2)nn1C` [METHYL 3-METHOXY-2-(2-((1-METHYL-3-(4-(METHYLTHIO)PHENYL)-1H-PYRAZOL-5-YLOXY)METHYL)PHENYL)ACRYLATE]: the Activity was 0% in [1]; 0% in assay [4]; 0% in assay [5]; 35% in assay [6]; 100% in assay [7]; 100% in assay [8]. In addition, the Activity in [9] came to 0%; in [10] it was 90%.
On to `CO/C=C(/C(=O)OC)c1ccccc1COc1cc(-c2ccc(C)cc2)nn1C` [METHYL 3-METHOXY-2-(2-((1-METHYL-3-P-TOLYL-1H-PYRAZOL-5-YLOXY)METHYL)PHENYL)ACRYLATE], for which the Activity was 0% in [1]; 0% in [2]; 35% in assay [3]; 100% in assay [4]; 0% in assay [5]; 0% in assay [6]. The Activity in assay [7] was 0%; in assay [8], 100%; in assay [9], 0%; in assay [10] it was 0%.
As to `CO/C=C(/C(=O)OC)c1ccccc1COc1cc(-c2ccccc2)nn1C` [METHYL 3-METHOXY-2-(2-((1-METHYL-3-PHENYL-1H-PYRAZOL-5-YLOXY)METHYL)PHENYL)ACRYLATE], the Activity came out at 0% in assay [1]; 0% in [2]; 0% in assay [3]; 100% in [4]; 0% in [5]; 0% in assay [6]. In addition, the Activity in [7] stood at 0%; in [8], 100%; in assay [9] it was 0%; in [10], 0%.
As for `CO/C=C(/C(=O)OC)c1ccccc1COc1cc(-c2ccc(OC)cc2)nn1C` [METHYL 3-METHOXY-2-(2-((3-(4-METHOXYPHENYL)-1-METHYL-1H-PYRAZOL-5-YLOXY)METHYL)PHENYL)ACRYLATE], the Activity in [1] is recorded as 0%; in assay [2], 0%; in [3] it was 65%; in assay [4] it was 100%; in [5], 0%; in assay [6] it was 15%. In addition, the Activity is listed as 90% in [7], 95% in assay [8], 50% in [9] and 100% in [10].
